Laboratory results reported in US11512079B2, “Heterocycle substituted pyridine derivative antifungal agents” (Amplyx Pharmaceuticals, Inc., priority 2017, dated 2022).
In brackets after ≈: the same amount, converted by molar mass.

Assays:
Format in all cases: cell-based
Candida albicans 90028 = experiment: In vitro antifungal assay (Example IX), microdilution broth, MIC; conditions: minimum inhibitory concentration (≥50% inhibition), 35° C., 40-48 h, RPMI1640
Summary of the method: (§1)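 Yeast inocula (2.5×10^3 cells/mL, RPMI1640) were exposed to twofold compound series reaching 2-0.0019 μg/mL final, per CLSI yeast methodology. Incubation at 35° C. ran 40-48 h for Candida albicans 90028 and 72 h for Cryptococcus neoformans H99. MIC endpoints were confirmed by absorbance at 600 nm.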

[1] = test system: Cryptococcus neoformans H99; experiment: as above; conditions: minimum inhibitory concentration (≥50% inhibition), 35° C., 72 h, RPMI1640
Summary of the method: as §1

[2] = test system: Aspergillus fumigatus MYA3626; experiment: In vitro antifungal assay (Example IX), microdilution broth, MEC; conditions: minimum effective concentration (shortening of hyphae), 35° C., 40-48 h, RPMI1640
Summary of the method: (§2)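 Read-out is the minimum effective concentration: lowest compound level causing shorter hyphae than in DMSO controls, echinocandin-style. Broth microdilution used conidia or spores harvested from agar plates, cleared of mycelium and clumps, at a final 1-2×10^4 spores/mL in RPMI1640.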

[3] = test system: Rhizomucor pusillus 46342; experiment: as above; conditions: minimum effective concentration (shortening of hyphae), 35° C., 40-48 h, RPMI1640
Summary of the method: as §2

Cryptococcus gattii = experiment: In vitro antifungal assay (Example IX), microdilution broth, MIC; conditions: minimum inhibitory concentration (≥50% inhibition), 35° C., 72 h (Cryptococcus), RPMI1640
Summary of the method: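 MIC was determined from OD600 after 72 h at 35 °C for Cryptococcus, in RPMI1640 inoculated at 2.5×10^3 cells/mL. Compounds were tested as a 2-fold series from 2 to 0.0019 μg/mL final, added from DMSO intermediates at a 100-fold dilution.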

SMILES	MIC (Candida albicans 90028) [µg/mL]	MIC [1] [µg/mL]	MIC (Cryptococcus gattii) [µg/mL]	minimal effective concentration [2] [µg/mL]	minimal effective concentration [3] [µg/mL]
Nc1ncccc1-c1cc(Cc2ccc(Cn3cc(C(F)(F)F)cn3)cc2)no1 [compound 5, 3-(3-(4-((4-(trifluoromethyl)-1H-pyrazol-1-yl)methyl)benzyl)isoxazol-5-yl)pyridin-2-amine]	0.1 to 1 (≈ 0.25 to 2.5 µM)	0.1 to 1 (≈ 0.25 to 2.5 µM)	0.1 to 1 (≈ 0.25 to 2.5 µM)	0.1 to 1	0.1 to 1
Nc1ncccc1-c1cc(Cc2ccnc(OCc3ccccc3)c2)no1 [Example 148, 3-(3-((2-(benzyloxy)pyridin-4-yl)methyl)isoxazol-5-yl)pyridin-2-amine]	0.01 to 0.1 (≈ 0.0279 to 0.279 µM)	0.01 to 0.1 (≈ 0.0279 to 0.279 µM)	0.01 to 0.1 (≈ 0.0279 to 0.279 µM)	0.01 to 0.1	0.1 to 1
Nc1ncccc1-c1cc(Cc2ccc(OCc3cccc(F)c3)nc2)no1 [compound 80, 3-(3-((6-((3-fluorobenzyl)oxy)pyridin-3-yl)methyl)isoxazol-5-yl)pyridin-2-amine]	≤ 0.01	0.01 to 0.1 (≈ 0.0266 to 0.266 µM)	0.01 to 0.1 (≈ 0.0266 to 0.266 µM)	≤ 0.01	0.1 to 1
Nc1ncccc1-c1cc(Cc2ccc(OCc3cscn3)nc2)no1 [compound 41, 3-(3-((6-(thiazol-4-ylmethoxy)pyridin-3-yl)methyl)isoxazol-5-yl)pyridin-2-amine]	0.01 to 0.1 (≈ 0.0274 to 0.274 µM)	0.01 to 0.1 (≈ 0.0274 to 0.274 µM)	0.01 to 0.1 (≈ 0.0274 to 0.274 µM)	0.01 to 0.1	0.1 to 1
Nc1ncccc1-c1cc(Cc2ccc(Cc3cn[nH]c3)cc2)no1 [compound 10, 3-(3-(4-((1H-pyrazol-4-yl)methyl)benzyl)isoxazol-5-yl)pyridin-2-amine]	0.1 to 1 (≈ 0.302 to 3.02 µM)	0.1 to 1 (≈ 0.302 to 3.02 µM)	0.1 to 1 (≈ 0.302 to 3.02 µM)	0.1 to 1	> 1
Nc1ncccc1-c1cc(Cc2ccc(OCc3cccc(F)c3)cc2)no1 [Example 138, 3-(3-(4-((3-fluorobenzyl)oxy)benzyl)isoxazol-5-yl)pyridin-2-amine]	0.01 to 0.1 (≈ 0.0266 to 0.266 µM)	0.01 to 0.1 (≈ 0.0266 to 0.266 µM)	≤ 0.01	0.01 to 0.1	0.1 to 1
Nc1ncccc1-c1cc(Cc2ccc(COc3cccc(F)c3)cc2)no1 [Example 169, 3-(3-(4-((3-fluorophenoxy)methyl)benzyl)isoxazol-5-yl)pyridin-2-amine]	0.01 to 0.1 (≈ 0.0266 to 0.266 µM)	0.01 to 0.1 (≈ 0.0266 to 0.266 µM)	0.01 to 0.1 (≈ 0.0266 to 0.266 µM)	0.01 to 0.1	0.1 to 1
Nc1ncccc1-c1cc(Cc2ccc(OCc3ccncc3F)nc2)no1 [compound 54, 3-(3-((6-((3-fluoropyridin-4-yl)methoxy)pyridin-3-yl)methyl)isoxazol-5-yl)pyridin-2-amine]	0.01 to 0.1 (≈ 0.0265 to 0.265 µM)	0.01 to 0.1 (≈ 0.0265 to 0.265 µM)	≤ 0.01	0.01 to 0.1	> 1
Nc1ncccc1-c1cc(Cc2ccc(CNc3nc(Cl)cs3)cc2)no1 [compound 34, N-(4-((5-(2-aminopyridin-3-yl)isoxazol-3-yl)methyl)benzyl)-4-chlorothiazol-2-amine]	0.01 to 0.1 (≈ 0.0251 to 0.251 µM)	> 1	0.1 to 1 (≈ 0.251 to 2.51 µM)	0.1 to 1	0.1 to 1
Nc1ncccc1-c1cc(Cc2ccc(Oc3ccc(F)cc3)nc2)no1 [Example 160, 3-(3-((6-(4-fluorophenoxy)pyridin-3-yl)methyl)isoxazol-5-yl)pyridin-2-amine]	0.1 to 1 (≈ 0.276 to 2.76 µM)	0.1 to 1 (≈ 0.276 to 2.76 µM)	0.1 to 1 (≈ 0.276 to 2.76 µM)	0.01 to 0.1	0.1 to 1
C#CCOc1ccc(Cc2cc(-c3cccnc3N)on2)cn1 [Example 157, 3-(3-((6-(prop-2-yn-1-yloxy)pyridin-3-yl)methyl)isoxazol-5-yl)pyridin-2-amine]	> 1	0.1 to 1 (≈ 0.326 to 3.26 µM)	0.1 to 1 (≈ 0.326 to 3.26 µM)	0.1 to 1	0.1 to 1
Nc1ncccc1-c1cc(Cc2ccc(OCc3cnccn3)nc2)no1 [compound 47, 3-(3-((6-(pyrazin-2-ylmethoxy)pyridin-3-yl)methyl)isoxazol-5-yl)pyridin-2-amine]	0.01 to 0.1 (≈ 0.0277 to 0.277 µM)	0.1 to 1 (≈ 0.277 to 2.77 µM)	0.1 to 1 (≈ 0.277 to 2.77 µM)	0.1 to 1	0.1 to 1
Nc1ncccc1-c1cc(Cc2ccc(CNc3ncccn3)cc2)no1 [compound 32, N-(4-((5-(2-aminopyridin-3-yl)isoxazol-3-yl)methyl)benzyl)pyrimidin-2-amine]	0.01 to 0.1 (≈ 0.0279 to 0.279 µM)	0.1 to 1 (≈ 0.279 to 2.79 µM)	0.1 to 1 (≈ 0.279 to 2.79 µM)	0.01 to 0.1	0.1 to 1
Nc1ncccc1-c1cc(Cc2ccc(OCc3cccnc3)nc2)no1 [compound 36, 3-(3-((6-(pyridin-3-ylmethoxy)pyridin-3-yl)methyl)isoxazol-5-yl)pyridin-2-amine]	0.01 to 0.1 (≈ 0.0278 to 0.278 µM)	0.01 to 0.1 (≈ 0.0278 to 0.278 µM)	0.01 to 0.1 (≈ 0.0278 to 0.278 µM)	0.01 to 0.1	> 1
Nc1ncccc1-c1cc(Cc2ccc(OCCc3ccc(F)cc3)nc2)no1 [compound 79, 3-(3-((6-(4-fluorophenethoxy)pyridin-3-yl)methyl)isoxazol-5-yl)pyridin-2-amine]	0.01 to 0.1 (≈ 0.0256 to 0.256 µM)	0.01 to 0.1 (≈ 0.0256 to 0.256 µM)	0.1 to 1 (≈ 0.256 to 2.56 µM)	0.1 to 1	0.1 to 1
Nc1ncccc1-c1cc(Cc2ccnc(OCCc3cccc(F)c3)c2)no1 [Example 146, 3-(3-((2-(3-fluorophenethoxy)pyridin-4-yl)methyl)isoxazol-5-yl)pyridin-2-amine]	0.1 to 1 (≈ 0.256 to 2.56 µM)	0.1 to 1 (≈ 0.256 to 2.56 µM)	0.1 to 1 (≈ 0.256 to 2.56 µM)	> 1	> 1
CCn1cc(Cc2ccc(Cc3cc(-c4cccnc4N)on3)cc2)cn1 [compound 12, 3-(3-(4-((1-ethyl-1H-pyrazol-4-yl)methyl)benzyl)isoxazol-5-yl)pyridin-2-amine]	0.1 to 1 (≈ 0.278 to 2.78 µM)	0.1 to 1 (≈ 0.278 to 2.78 µM)	0.1 to 1 (≈ 0.278 to 2.78 µM)	0.01 to 0.1	> 1

Further lines, with some results ahead:

MIC (Candida albicans 90028) [µg/mL]	MIC [1] [µg/mL]	MIC (Cryptococcus gattii) [µg/mL]	SMILES	minimal effective concentration [2] [µg/mL]	minimal effective concentration [3] [µg/mL]
0.01 to 0.1 (≈ 0.0266 to 0.266 µM)	0.1 to 1 (≈ 0.266 to 2.66 µM)	0.01 to 0.1 (≈ 0.0266 to 0.266 µM)	Nc1ncccc1-c1cc(Cc2ccc(COc3cccc(F)n3)cc2)no1 [compound 137, 3-(3-(4-(((6-fluoropyridin-2-yl)oxy)methyl)benzyl)isoxazol-5-yl)pyridin-2-amine]	0.01 to 0.1	> 1
0.01 to 0.1 (≈ 0.0286 to 0.286 µM)	0.01 to 0.1 (≈ 0.0286 to 0.286 µM)	0.01 to 0.1 (≈ 0.0286 to 0.286 µM)	Nc1ncccc1-c1cc(Cc2ccc(Cc3ccc(F)o3)cc2)no1 [compound 124, 3-(3-(4-((5-fluorofuran-2-yl)methyl)benzyl)isoxazol-5-yl)pyridin-2-amine]	0.01 to 0.1	0.01 to 0.1
0.1 to 1 (≈ 0.245 to 2.45 µM)	0.01 to 0.1 (≈ 0.0245 to 0.245 µM)	0.1 to 1 (≈ 0.245 to 2.45 µM)	COc1cc(COc2ccc(Cc3cc(-c4cccnc4N)on3)cn2)c(F)cn1 [compound 207, 3-(3-((6-((5-fluoro-2-methoxypyridin-4-yl)methoxy)pyridin-3-yl)methyl)isoxazol-5-yl)pyridin-2-amine]	0.01 to 0.1	> 1
0.01 to 0.1 (≈ 0.0254 to 0.254 µM)	0.01 to 0.1 (≈ 0.0254 to 0.254 µM)	0.1 to 1 (≈ 0.254 to 2.54 µM)	Nc1ncccc1-c1cc(Cc2ccc(OCc3cc(F)cc(F)c3)nc2)no1 [compound 84, 3-(3-((6-((3,5-difluorobenzyl)oxy)pyridin-3-yl)methyl)isoxazol-5-yl)pyridin-2-amine]	0.01 to 0.1	0.1 to 1
0.01 to 0.1 (≈ 0.0265 to 0.265 µM)	0.01 to 0.1 (≈ 0.0265 to 0.265 µM)	0.1 to 1 (≈ 0.265 to 2.65 µM)	Nc1ncccc1-c1cc(Cc2ccc(OCc3cccc(F)n3)nc2)no1 [compound 226, 3-(3-((6-((6-fluoropyridin-2-yl)methoxy)pyridin-3-yl)methyl)isoxazol-5-yl)pyridin-2-amine]	0.01 to 0.1	> 1
0.01 to 0.1 (≈ 0.03 to 0.3 µM)	0.1 to 1 (≈ 0.3 to 3 µM)	0.01 to 0.1 (≈ 0.03 to 0.3 µM)	Nc1ncccc1-c1cc(Cc2ccc(CC3=CCOC3)cc2)no1 [compound 123, 3-(3-(4-((2,5-dihydrofuran-3-yl)methyl)benzyl)isoxazol-5-yl)pyridin-2-amine]	0.01 to 0.1	> 1
0.1 to 1 (≈ 0.269 to 2.69 µM)	0.1 to 1 (≈ 0.269 to 2.69 µM)	0.1 to 1 (≈ 0.269 to 2.69 µM)	Cc1cncc(COc2ccc(Cc3cc(-c4cccnc4N)on3)cc2)c1 [compound 114, 3-(3-(4-((5-methylpyridin-3-yl)methoxy)benzyl)isoxazol-5-yl)pyridin-2-amine]	0.01 to 0.1	> 1
0.1 to 1 (≈ 0.264 to 2.64 µM)	0.01 to 0.1 (≈ 0.0264 to 0.264 µM)	0.01 to 0.1 (≈ 0.0264 to 0.264 µM)	Cc1csc(COc2ccc(Cc3cc(-c4cccnc4N)on3)cn2)n1 [compound 82, 3-(3-((6-((4-methylthiazol-2-yl)methoxy)pyridin-3-yl)methyl)isoxazol-5-yl)pyridin-2-amine]	0.01 to 0.1	> 1
0.01 to 0.1 (≈ 0.0228 to 0.228 µM)	0.1 to 1 (≈ 0.228 to 2.28 µM)	0.1 to 1 (≈ 0.228 to 2.28 µM)	Nc1ncccc1-c1cc(Cc2ccc(OCc3cccc(Br)n3)nc2)no1 [compound 223, 3-(3-((6-((6-bromopyridin-2-yl)methoxy)pyridin-3-yl)methyl)isoxazol-5-yl)pyridin-2-amine]	0.01 to 0.1	> 1
